The values below come from ChEMBL document CHEMBL1152766, “Bioactive constituents from the leaves of Clinacanthus nutans Lindau” (Bioorg Med Chem, 2009).

Data set [1] relates to Human alphaherpesvirus 1. In words: Antiviral activity against 1000 PFU/ml infectious dose of HSV1 strain F infected in african green monkey Vero cells after 72 hrs by plaque reduction assay. The conditions noted are these: Human alphaherpesvirus 1, strain F. Format: functional, organism-based.
Data set [2] is described as follows: Cytotoxicity against african green monkey Vero cells after 72 hrs. The conditions noted are these: chlorocebus sabaeus, read-out: MNCC. Format: cell-based.
For data set [3], the system named is Human alphaherpesvirus 1. In words: Antiviral activity against 1000 PFU/ml infectious dose of HSV1 strain F infected in african green monkey Vero cells assessed as inhibition of virus in post-viral entry step at 6.21 uM after 72 hrs by plaque reduction assay. Format: functional. Also noted: scale not given: the % may be the effect or the level left. (In general: Plaque reduction counts the foci of infection that form in a cell layer.)

Data set [4] relates to Human alphaherpesvirus 1. In words: Antiviral activity against 1000 PFU/ml infectious dose of HSV1 strain F infected in african green monkey Vero cells assessed as inhibition of virus in pre-viral entry step at 6.21 uM after 72 hrs by plaque reduction assay. Format: functional. Also noted: scale not given: the % may be the effect or the level left.
In data set [5] the test system is Human alphaherpesvirus 1. Briefly: Antiviral activity against 1000 PFU/ml infectious dose of HSV1 strain F infected in african green monkey Vero cells assessed as inhibition of virus in post-viral entry step at 5.89 uM after 72 hrs by plaque reduction assay. Format: functional. More on the design: scale not given: the % may be the effect or the level left.
Data set [6] deals with Human alphaherpesvirus 1. In words: Antiviral activity against 1000 PFU/ml infectious dose of HSV1 strain F infected in african green monkey Vero cells assessed as inhibition of virus in pre-viral entry step at 5.89 uM after 72 hrs by plaque reduction assay. Format: functional. Also noted: scale not given: the % may be the effect or the level left.

Broadly, the IC50 is the concentration needed to halve the response being measured. Consider `C=Cc1c(C)c2cc3nc(c4c5[nH]c(cc6nc(cc1[nH]2)C(C)=C6CC)c(C)c5C(=O)[C@]4(O)C(=O)OC)[C@@H](CCC(=O)O/C=C(\C)CCCC(C)CCCC(C)CCCC(C)C)[C@@H]3C` (some centres not stated), for which the IC50 in data set [1] worked out at 3.11 nM. Also, the MNTC at 72 h in data set [2] came out at 6.21 µM. For the same compound, the Activity in data set [3] turned out to be 30%; in data set [4] it was 100%.

Regarding `C=Cc1c(C)c2cc3nc(c4c5[nH]c(cc6nc(cc1[nH]2)C(C)=C6CC)c(C)c5C(=O)[C@@]4(O)C(=O)OC)[C@@H](CCC(=O)O/C=C(\C)CCCC(C)CCCC(C)CCCC(C)C)[C@@H]3C` (some centres not stated), it took 3.11 nM to reach half-maximal inhibition in data set [1] (IC50). For the same compound, in data set [2], the MNTC at 72 h was 6.21 µM. Also, the Activity in data set [3] amounted to 30%; in data set [4], 100%.

In the case of `C=Cc1c(C)c2cc3nc(c4c5[nH]c(cc6nc(cc1[nH]2)C(C=O)=C6CC)c(C)c5C(=O)[C@@]4(O)C(=O)OC)[C@@H](CCC(=O)O/C=C(\C)CCCC(C)CCCC(C)CCCC(C)C)[C@@H]3C` (some centres not stated) [13(2)-HYDROXY-(13(2)-R)-PHAEOPHYTIN B], in data set [1], it took 1.96 nM to reach half-maximal inhibition (IC50). Further, the MNTC at 72 h in data set [2] was 5.89 µM. Moreover, the Activity in data set [5] came to 30%; in data set [6] it was 100%.
